Patent US7417156B2, “Orally active, antimalarial, anticancer, artemisinin-derived trioxane dimers” (Johns Hopkins University, priority 2002, dated 2008)

Experiments:
MOLT-4 = details: for Log10GI50: Leukemia, MOLT-4; for Log10TGI50: TGI: PG=0
Protocol: Growth Inhibition. […] The screening assay is performed on 96-well microtitre plates. Relatively high initial inoculation densities are used, in order to permit measurement of “time-zero” values and to enhance the screen's ability to detect and provide some differentiation between growth inhibition and cytotoxic response parameters. […] The inoculated microtitre plates are pre-incubated for 24 hours at 37° C. prior to drug additions. The five drug dilutions tested routinely range from 10^−4 to 10^−8 molar. Higher or lower concentration ranges may be selected on a non-routine basis if appropriate solubility and/or prior biological information or other screening data so dictate. Duplicate wells are prepared for all concentrations, (concentration is often denoted by placing brackets around a number); “time-zero” and “no drug” controls are also provided for each test. The minimum amount of compound required for a one-time evaluation in the routine screen can be calculated from the knowledge that each test requires a total of approximately 40 ml (0.04 liter) of cell culture medium containing the highest desired drug concentration. […] After a 48 hour incubation (37° C.) with the test compound, the cells are fixed in situ to the bottoms of the microtitre wells by addition of 50 μl of either 50% trichloroacetic acid (for adherent cell lines) or 80% trichloroacetic acid (for settled cell suspension lines), followed by incubation for 60 minutes at 4° C. The cellular protein in each well is assayed using a sulforhodamine B (SRB) stain procedure. Briefly, after discarding the supernatants, the microtitre plates are washed 5 times with deionized water and air-dried. […] Unbound SRB is removed by washing 5 times with 1% acetic acid. […] SRB is a bright pink anionic dye which, in dilute acetic acid, binds electrostatically to the basic amino acids of TCA-fixed cells. Cryopreserved master stocks of all the lines are maintained, and cultures used for screening are replaced from the master stock after no more than twenty passages in the screening laboratory. The cell line panel consists of 60 lines, organized into nine, disease-related subpanels including leukemia, non-small-cell lung cancer, colon, CNS, melanoma, ovarian, renal, prostate and breast cancers.
At this value the increase from time tzero, in the number or mass of cells in the test well is only 50% as much as the corresponding increase in the control well during this period of the experiment, see Table III. A drug effect of this intensity is interpreted as primary growth inhibition.
At this value the number or mass of cells in the well at the end of the experiment equals the number or mass of cells in the well at time tzero, see Table IV. A drug effect of this intensity is regarded as cytostasis.
At this value, the number or mass of cells in the test well at the end of the experiment is half that at time tzero, see Table V. This is interpreted as cytotoxicity.
Dose response curves, shown in the above mentioned Figures, are obtained by exposing various cancer cell lines to compounds having a known concentration ([log10M]), as discussed in detail above, and then plotting the percentage growth of each cell line for each concentration. […] Percentage growth is determined by dividing the number or mass of cells in the test well by the number or mass of cells in a control well. […] As discussed previously, the five drug dilutions routinely tested range from 10^−4 to […].

CAKI-1 = test: NCI 60 cell line panel screen (SRB); type: cell-based, human
PC-3 = test: NCI 60 cell line panel screen (SRB); type: cell-based, human; details: for Log10TGI50: TGI: PG=0
SK-MEL-28 = test: NCI 60 cell line panel screen (SRB); type: cell-based, human
SK-MEL-2 = test: NCI 60 cell line panel screen (SRB); type: cell-based, human; details: for Log10GI50: Melanoma, SK-MEL-2
NCI-H23 = test: NCI 60 cell line panel screen (SRB); type: cell-based, human; details: NCI-H23 (Non-Small Cell Lung Cancer); TGI: PG=0
OVCAR-8 = test: NCI 60 cell line panel screen (SRB); type: cell-based, human; details: for Log10GI50: Ovarian Cancer, OVCAR-8
RXF 393 = test: NCI 60 cell line panel screen (SRB); type: cell-based, human; details: for Log10TGI50: TGI: PG=0
MDA-MB-435 = test: NCI 60 cell line panel screen (SRB); type: cell-based, human; details: for Log10GI50: Breast Cancer, MDA-MB-435
CCRF-CEM = test: NCI 60 cell line panel screen (SRB); type: cell-based, human; details: for Log10TGI50: TGI: PG=0
BT-549 = test: NCI 60 cell line panel screen (SRB); type: cell-based, human; details: for Log10TGI50: TGI: PG=0
HOP-62 = test: NCI 60 cell line panel screen (SRB); type: cell-based, human; details: for Log10TGI50: TGI: PG=0; for Log10GI50: Non-Small Cell Lung Cancer, HOP-62
K-562 = test: NCI 60 cell line panel screen (SRB); type: cell-based, human; details: for Log10TGI50: TGI: PG=0
UACC-257 = test: NCI 60 cell line panel screen (SRB); type: cell-based, human; details: for Log10GI50: Melanoma, UACC-257; for Log10TGI50: TGI: PG=0
RPMI-8226 = test: NCI 60 cell line panel screen (SRB); type: cell-based, human
MDA-MB231/ATCC = test: NCI 60 cell line panel screen (SRB); type: cell-based, human
[1] = HOP-62 (Non-Small Cell Lung Cancer)

How did the Log10GI50 (MOLT-4) turn out when `CC1CCC2C(C)C(CC(COCC(=O)O)CC3OC4OC5(C)CCC6C(C)CCC(C3C)C46OO5)OC3OC4(C)CCC1C32OO4` (centres unmarked) [Compound 12b, bis-trioxane O-acetic acid] was run?
The Log10GI50 was −7.66.

What about the Log10TGI50 (MOLT-4; MOLT-4 (Leukemia)) of the same compound?
Its Log10TGI50 is over −4.30 log10M.

And the Log10TGI50 (CAKI-1; CAKI-1 (Renal Cancer), TGI: PG=0)?
The Log10TGI50 was −6.40 log10M.

What about the Log10GI50 (CAKI-1; Renal Cancer, CAKI-1) of the same compound?
The Log10GI50 was −6.91.

And the Log10TGI50 (PC-3; PC-3 (Prostate Cancer))?
The Log10TGI50 was −4.92 log10M.

And the Log10GI50 (SK-MEL-28; Melanoma, SK-MEL-28)?
The Log10GI50 was −4.92.

And the Log10TGI50 (SK-MEL-28; SK-MEL-28 (Melanoma), TGI: PG=0)?
Its Log10TGI50 is over −4.30 log10M.

And the Log10GI50 (SK-MEL-2)?
The Log10GI50 was −5.62.

And the Log10TGI50 (SK-MEL-2; SK-MEL-2 (Melanoma), TGI: PG=0)?
The Log10TGI50 was over −4.30 log10M.

What about the Log10TGI50 (NCI-H23) of the same compound?
The Log10TGI50 was over −4.30 log10M.

And the Log10TGI50 (OVCAR-8; OVCAR-8 (Ovarian Cancer), TGI: PG=0)?
Its Log10TGI50 is over −4.30 log10M.

What about the Log10GI50 (OVCAR-8) of the same compound?
Its Log10GI50 is over −4.30.

And the Log10TGI50 (RXF 393; RXF 393 (Renal Cancer))?
The Log10TGI50 was under −8.30 log10M.

What about the Log10GI50 (MDA-MB-435) of the same compound?
The Log10GI50 was −6.97.

And the Log10TGI50 (MDA-MB-435; MDA-MB-435 (Breast Cancer), TGI: PG=0)?
Its Log10TGI50 is over −4.30 log10M.

And the Log10TGI50 (CCRF-CEM; CCRF-CEM (Leukemia))?
Its Log10TGI50 is over −4.30 log10M.

And the Log10TGI50 (BT-549; BT-549 (Breast Cancer))?
Its Log10TGI50 is over −4.30 log10M.

What about the Log10TGI50 (HOP-62; [1]) of the same compound?
Its Log10TGI50 is over −4.30 log10M.

What about the Log10GI50 (HOP-62) of the same compound?
The Log10GI50 was −6.23.

And the Log10TGI50 (K-562; K-562 (Leukemia))?
Its Log10TGI50 is over −4.30 log10M.

What about the Log10GI50 (UACC-257) of the same compound?
The Log10GI50 was over −4.30.

And the Log10TGI50 (UACC-257; UACC-257 (Melanoma))?
Its Log10TGI50 is over 4.30 log10M.

How did the Log10GI50 (RPMI-8226; Leukemia, RPMI-8226) turn out when `CC(=O)O[C@H]1C(=O)[C@@]2(C)[C@H]([C@H](OC(=O)c3ccccc3)[C@]3(O)C[C@H](OC(=O)[C@H](O)[C@@H](NC(=O)c4ccccc4)c4ccccc4)C(C)=C1C3(C)C)[C@]1(OC(C)=O)CO[C@@H]1C[C@@H]2O` [Paclitaxel, paclitaxel, reference compound] was run?
The Log10GI50 was under −13.00.

And the Log10LC50 (RPMI-8226; RPMI-8226 (Leukemia), LC50: PG=−50)?
Its Log10LC50 is over −4.00 log10M.

What about the Log10TGI50 (RPMI-8226; RPMI-8226 (Leukemia), TGI: PG=0) of the same compound?
The Log10TGI50 was over −4.00 log10M.

What about the Log10GI50 (MOLT-4) of the same compound?
The Log10GI50 was −11.07.

And the Log10LC50 (MOLT-4; MOLT-4 (Leukemia), LC50: PG=−50)?
Its Log10LC50 is over −4.00 log10M.

And the Log10TGI50 (MOLT-4; MOLT-4 (Leukemia))?
The Log10TGI50 was over −4.00 log10M.

And the “drug concentration for primary growth inhibition (percentage growth +50)” value (MOLT-4; MOLT-4, from dose response curves FIGS. 7a-7i)?
The value was 10^−11 molar.

What about the “concentration for cytotoxicity (percentage growth −50)” value (MOLT-4; human, 48 h) of the same compound?
The value was “greater than 10^−4 M”.

And the Log10LC50 (CAKI-1; CAKI-1 (Renal Cancer), LC50: PG=−50)?
The Log10LC50 was over −4.00 log10M.

What about the Log10LC50 (PC-3; PC-3 (Prostate Cancer), LC50: PG=−50) of the same compound?
The Log10LC50 was over −4.00 log10M.

And the Log10TGI50 (PC-3; PC-3 (Prostate Cancer))?
The Log10TGI50 was over −4.00 log10M.

And the Log10GI50 (PC-3; Prostate Cancer, PC-3)?
Its Log10GI50 is −10.85.

What about the Log10GI50 (MDA-MB231/ATCC; Breast Cancer, MDA-MB231/ATCC) of the same compound?
Its Log10GI50 is −8.54.

What about the Log10TGI50 (MDA-MB231/ATCC; MDA-MB231/ATCC (Breast Cancer), TGI: PG=0) of the same compound?
Its Log10TGI50 is −4.84 log10M.

What about the Log10GI50 (SK-MEL-2) of the same compound?
The Log10GI50 was −9.53.

What about the Log10LC50 (SK-MEL-2; SK-MEL2 (Melanoma), LC50: PG=−50) of the same compound?
The Log10LC50 was over −4.00 log10M.

And the Log10LC50 (OVCAR-8; OVCAR-8 (Ovarian Cancer), LC50: PG=−50)?
Its Log10LC50 is over −4.00 log10M.

And the Log10GI50 (OVCAR-8)?
The Log10GI50 was −10.75.

What about the Log10LC50 (RXF 393; RXF 393 (Renal Cancer), LC50: PG=−50) of the same compound?
The Log10LC50 was over −4.00 log10M.

What about the Log10TGI50 (RXF 393; RXF 393 (Renal Cancer)) of the same compound?
Its Log10TGI50 is over −4.00 log10M.

And the Log10GI50 (RXF 393; Renal Cancer, RXF 393)?
The Log10GI50 was −8.32.

And the Log10GI50 (MDA-MB-435)?
Its Log10GI50 is under −13.00.

And the Log10LC50 (CCRF-CEM; CCRF-CEM (Leukemia), LC50: PG=−50)?
The Log10LC50 was over −4.00 log10M.

What about the Log10TGI50 (CCRF-CEM; CCRF-CEM (Leukemia)) of the same compound?
The Log10TGI50 was over −4.00 log10M.

And the Log10GI50 (CCRF-CEM; Leukemia, CCRF-CEM)?
The Log10GI50 was −11.61.

And the Log10LC50 (BT-549; BT-549 (Breast Cancer), LC50: PG=−50)?
The Log10LC50 was over −4.00 log10M.

What about the Log10TGI50 (BT-549; BT-549 (Breast Cancer)) of the same compound?
The Log10TGI50 was −6.32 log10M.

What about the Log10GI50 (BT-549; Breast Cancer, BT-549) of the same compound?
The Log10GI50 was −9.31.

And the Log10LC50 (HOP-62; HOP-62 (Non-Small Cell Lung Cancer), LC50: PG=−50)?
The Log10LC50 was −4.10 log10M.

What about the Log10TGI50 (HOP-62; [1]) of the same compound?
The Log10TGI50 was −4.80 log10M.

And the Log10GI50 (HOP-62)?
The Log10GI50 was −9.67.

What about the Log10LC50 (K-562; K-562 (Leukemia), LC50: PG=−50) of the same compound?
Its Log10LC50 is over −4.00 log10M.

And the Log10TGI50 (K-562; K-562 (Leukemia))?
The Log10TGI50 was over −4.00 log10M.

And the Log10GI50 (K-562; Leukemia, K-562)?
Its Log10GI50 is −10.83.

What about the Log10GI50 (UACC-257) of the same compound?
The Log10GI50 was −10.30.

What about the Log10LC50 (UACC-257; UACC-257 (Melanoma), LC50: PG=−50) of the same compound?
Its Log10LC50 is −4.03 log10M.

What about the Log10TGI50 (UACC-257; UACC-257 (Melanoma)) of the same compound?
The Log10TGI50 was −4.52 log10M.
